Read-outs that look alike come from different tables or passages of the source.
Legend:
[1] = oral; ref [127],[128]; cited from earlier work
rats = conditions: long-term feeding 0.2–2 g/kg/day, ref [121]; cited from earlier work
[2] = parameters: method as in doi:10.1055/s-0032-1320426; conditions: ref [171],[172], cited from earlier work
[3] = parameters: method as in PMID 33819630; conditions: male Wistar rats, oral [3H]20E; ref [127]; cited from earlier work
[4] = parameters: method as in ref [174] = [174]; 174. Thole S.W. The Metabolic Syndrome: The Effects of β-ecdysone on Selected Body Parameters and Serum Lipids on the Metabolic Syndrome Ph.D. Thesis University of Göttingen Göttingen, Germany 2018; conditions: ref [174], cited from earlier work
ovariectomized rats = system: ovariectomized rats; parameters: method as in Seidlova-Wuttke et al. [57],[94]; conditions: up to 500 mg/kg daily for 3 months, ref Seidlova-Wuttke et al. [57],[94]; cited from earlier work
Hymenolepiasis = system: Hymenolepiasis; parameters: method as in PMID 22536744; conditions: 5 mg 3×/day, 2 weeks; ref [169]; cited from earlier work
[5] = system: myostatin gene expression in C2C12 cells; conditions: C2C12 myotubes, ref [103], cited from earlier work
[6] = repeated dose toxicity study (39-week); conditions: dog, in vivo; dogs, 39-week repeated dose; Biophytis, unpublished data; read-out: No Observed Adverse Effect Level (NOAEL)
Source text: (§1) More recently, a purified to pharmaceutical grade 20E (≥97% 20E purity) was used as a drug candidate in preclinical regulatory studies including safety pharmacology, genotoxicity and repeated toxicology in rodents (rats) and non-rodents (dog).

[7] = genotoxicity (preclinical regulatory studies); conditions: Biophytis, unpublished data
Source text: as §1

ERα = system: ERα; parameters: method as in PMID 18220764; conditions: cited from earlier work
mice = conditions: ref Ogawa et al. [121], cited from earlier work
[8] = 30 days, ref [158], cited from earlier work
[9] = parameters: method as in PMID 15559639; conditions: hepatitis B, 5 mg b.i.d., 30 days; ref [159]; cited from earlier work
[10] = in vivo; cited from earlier work
Erβ = system: Erβ; parameters: method as in PMID 18220764; conditions: cited from earlier work
[11] = cited from earlier work; for dose dependence of plasma levels: increasing doses; for AUC0-t / Cmax / tmax: fasted; for AUC0-t / Cmax: n = 6, (SEM); for tmax: n = 6, (range)
[12] = parameters: method as in PMID 31190566; conditions: high fructose fed gerbils; ref [61]; cited from earlier work
rabbits = conditions: up to 100 mg/kg, ref [121]; cited from earlier work
C2C12 cells = system: C2C12 cells; parameters: method as in ref [103] = [103]; 103. Dilda P. Foucault A.S. Serova M. On S. Raynal S. Veillet S. Dioh W. Lafont R. BIO101, a drug candidate targeting Mas receptor for the treatment of age-reated muscle degeneration. From molecular t; conditions: C2C12 myotubes, ref [103], cited from earlier work
[13] = repeated dose toxicity study (26-week); conditions: rat, in vivo; rats, 26-week repeated dose; Biophytis, unpublished data; read-out: No Observed Adverse Effect Level (NOAEL)
Source text: as §1

[14] = system: epididymal adipose tissue; parameters: method as in PMID 21869758; conditions: mice, high-fat diet, 20E 50 mg/kg/day; ref [59]; cited from earlier work
[15] = slightly overweight persons, 200 mg daily
[16] = patients with metabolic syndrome
[17] = single oral 100 mg, ref [136],[137]
[18] = single oral 350 mg, ref [136],[137]
[19] = single oral 700 mg, ref [136],[137]
[20] = single oral 1400 mg, ref [136],[137]

## CC(C)(O)CC[C@@H](O)[C@](C)(O)[C@H]1CC[C@@]2(O)C3=CC(=O)[C@@H]4C[C@@H](O)[C@@H](O)C[C@]4(C)[C@H]3CC[C@]12C [20E, 2β,3β,14α,20R,22R,25-hexahydroxy-5β-cholest-7-en-6-one]
[1]
  bioavailability: ca. 1%
rats
  subacute toxicity: no subacute toxicity was observed
[2]; overweight, 100 or 200 mg/day, 3 months
  output of trial in menopause disorders: Prevention of metabolic syndrome and osteoporosis, reduction in body weight, reduction in plasma cholesterol and CRP; proposed for hormone replacement therapy
[2]; [15]
  increase of HDL: 10.8%
  reduction of LDL: 13.9%
  reduction of serum cholesterol: 10.2%
  reduction of triglycerides: 31.1%
  reduction of waist circumference: 2.7 cm
[3]
  radioactivity in urine, of the total radioactivity recovered: 1.40%
  time to completed elimination of 20E and its metabolites: ≤ 48 h
[4]; 40 or 90 mg/day, 3–6–9 months
  output of metabolic syndrome study: Reductions in body mass, proportion of body fat, waist cicumference and hsCRP, retention of muscle mass
[4]; [16]
  body parameters versus control group: continuous and significant loss of body mass, fat percentage, and waist diameter
  effect on serum lipids: no significant effect on serum lipids
  hsCRP level: marked reduction
Ovariectomized rats
  detrimental effects: no stated detrimental effects
Hymenolepiasis
  parasitological efficacy: 36.4%
  symptoms: Reduction in symptoms
[5]; 0.001 to 10 μM tested
  concentration with significant difference from control in myostatin gene expression: 1 to 10 µM
[5]; 6 h treatment
  myostatin gene expression: mimics the effect of IGF-1 in a dose-dependent manner
[6]
  NOAEL at 39 week: 1000 mg/kg
[7]
  genotoxic effects: no genotoxic effects
ERα
  binding to nuclear receptor: negative
mice; i.p.-injected
  LD50: 6400 mg/kg
mice; ingested
  LD50: > 9000 mg/kg
[8]; 5 mg 3×/day, age 40–60 M
  sexual function output: Improvement of sexual function during recovery from myocardial infarction
[8]; 5 mg, 2×/day
  sexual function output: Improved sperm quality and copulative function in patients with disturbed spermatogenesis as a complication of urologic diseases
[9]
  liver state: In case of hepatitis B, improvement of liver state
[10]
  time of plasma titre maximum: ca. 30 min
Erβ
  binding to nuclear receptor: negative
[11]; humans, SAD 100 to 1400 mg, MAD up to 450 mg twice a day for 14 days, ref [180]
  safety profile, adverse events: no serious adverse events during SAD and MAD
[11]; humans, oral, ref [136],[137]
  dose dependence of plasma levels: dose-related and also apparently saturable
[11]; humans, oral, ref [136],[137], listed as BIO101
  dose dependence of plasma levels: increased less that dose-proportionally
[11]; humans, oral, ref [180]
  bioavailability: rather low
[11]; humans, single dose, ref [136],[137]
  share of the urinary excretion within 4 h: half of this was excreted within 4 h
[11]; humans, within 12 h of a single dose, ref [136],[137]
  administered 20E excreted in the urine: About 2%
[11]; older adults, after 14 days of administration (MAD), ref [180]
  serum biomarkers of muscular catabolism (myoglobin, CK-MB): reduced in subjects administered the highest dose
[11]; [17]
  AUC0-t: 767 (31.1) ng·h/mL
  Cmax: 141 (16.6) ng/mL
  tmax: 2.03 (1.00–3.02) h
[11]; [18]
  AUC0-t: 1924 (40.1) ng·h/mL
  Cmax: 317 (37.9) ng/mL
[11]; [19]
  AUC0-t: 2578 (22.9) ng·h/mL
  Cmax: 399 (24.7) ng/mL
  tmax: 3.00 (2.00–4.02) h
[11]; [20]
  AUC0-t: 4148 (15.9) ng·h/mL
  Cmax: 710 (20.2) ng/mL
  tmax: 3.50 (2.00–4.02) h
[12]
  effect on adiposity: efficient
rabbits
  effects after administration: no effects were seen
C2C12 cells; 0.01–10 μM tested
  optimal concentration for anabolic effect on protein synthesis: 1 µM
C2C12 cells; 20E 0.01–10 μM, IGF-1 100 ng/mL
  protein synthesis stimulatory activity: equally active as insulin-like growth factor-1 (IGF-1)
[13]
  NOAEL at 26 week: 1000 mg/kg
[14]
  adipocyte diameter: retains the median adipocyte diameter close to that in mice fed a low-fat diet
  mass of epididymal fat pads: counteracts both the increase in the mass of the fat pads

— PMC8146789, “20-Hydroxyecdysone, from Plant Extracts to Clinical Use: Therapeutic Potential for the Treatment of Neuromuscular, Cardio-Metabolic and Respiratory Diseases” (Biomedicines, 2021)
